Data set [1] concerns Candida Glabrata (ATCC 90030). Nature of the data set: Broth micro-dilution susceptibility test (MIC). Format: cell-based. The note with it: Nakaseomyces glabratus, ATCC90030; geometric mean of two single experiments; 48 h at 35° C. Here is the method: (§1) Trichophyton Rubrum (ATCC 28188, PBI International); Trichophyton Mentagrophytes (ATCC 9533, PBI International); Aspergillus Niger (ATCC 16404, PBI International); Scopulariopsis Brevicaulis (ATCC 36840, DSMZ); Candida Albicans (ATCC 90028, PBI International); Candida Glabrata (ATCC 90030, DSMZ).
(§2) Strains were prepared from freeze-dried ampoules or freeze-dried pellets. An isolation of the suspensions was made on Potato Dextrose Agar (PDA) to test the strains purity. A strains' massive growth was then made streaking microbial suspensions on PDA plates.
(§3) Incubation was at 30° C. for 48-72 Hours (Candida yeasts) and for 7-10 days (filamentous fungi).
(§4) The yeasts' colonies and the filamentous fungi's conidia were harvested with 3-5 mL of RPMI 1640+50% glycerol and the aliquots frozen at −80° C.
(§5) Compounds' minimal inhibition concentration (MIC) was determined through broth micro-dilution susceptibility test using a method developed in agreement with the National Committee for Clinical Laboratory Standards (NCCLS) (National Committee for Clinical Laboratory Standards. Reference Method for Broth Dilution Antifungal Susceptibility Testing of Yeasts; Approved standard-Second Edition M27-A2. 2002; Vol. 22, No. 15) (National Committee for Clinical Laboratory Standards. Reference Method for Broth Dilution Antifungal Susceptibility Testing of Filamentous Fungi; Approved standard M38-A. 2002; Vol. 22, No. 16).
(§6) Assays were carried out in RPMI 1640 with L-glutamine medium buffered to pH 7 with 0.165M 3-(N-morpholino)propanesulfonic acid (MOPS) and 10M NaOH and supplemented with 18 g glucose/liter. The tests were performed using 96 well sterile plates (inoculum size of 1×10^5 CFU/mL). Compounds stock solutions were prepared at 12.8 mg/mL in 100% DMSO. A series of twofold dilutions were prepared in plate using RPMI 1640. Final concentrations ranged from 0.125 to 128 μg/mL at 1% DMSO.
Background: Dilution methods test growth across graded concentrations, often in twofold steps.

Data set [2] relates to Candida Albicans (ATCC 90028). The experiment in a line: Broth micro-dilution susceptibility test (MIC). In kind it is cell-based. The note with it: ATCC90028, geometric mean of two single experiments, 48 h at 35° C. Here is the method: as §1, §2, §3, §4, §5, §6
The test system of data set [3] is Scopulariopsis Brevicaulis (ATCC 36840). Nature of the data set: Broth micro-dilution susceptibility test (MIC). Format: cell-based. The note with it: ATCC36840, 120 h, geometric mean of two single experiments, five days at 35° C. Here is the method: as §1, §2, §3, §4, §5, §6
Data set [4] has as its system Aspergillus Niger (ATCC 16404). The experiment in a line: Broth micro-dilution susceptibility test (MIC). Format: cell-based. The note with it: ATCC16404, 120 h, geometric mean of two single experiments, five days at 35° C. Here is the method:
as §1, §2, §3, §4, §5, §6

For data set [5], the system named is Trichophyton Mentagrophytes (ATCC 9533). Nature of the data set: Broth micro-dilution susceptibility test (MIC). Format: cell-based. The note with it: ATCC9533, 120 h, geometric mean of two single experiments, five days at 35° C., read-out: MIC Tricophyton Mentagrophytes ATCC 9533. Here is the method:
as §1, §2, §3, §4, §5, §6

The subject of data set [6] is Trichophyton Rubrum (ATCC 28188). Nature of the data set: Broth micro-dilution susceptibility test (MIC). In kind it is cell-based. The note with it: ATCC28188, 120 h, geometric mean of two single experiments, five days at 35° C., read-out: MIC Trycophyton Rubrum ATCC 28188. Here is the method:
as §1, §2, §3, §4, §5, §6

Data set [7] deals with 6 strains tested, including yeasts, dermatophytes and molds. The experiment in a line: Spectrum of antifungal activity over the 6 strains tested. Format: cell-based. The note with it: 6 strains: yeasts. Here is the method:
as §1, §5, §6

The subject of data set [8] is Candida Glabrata (ATCC 90030). The experiment in a line: Assessment of the mechanism of action: antifungal activity with or without 100 μM Fe3+. The note with it: 100 μM FeCl3 in the test medium, OD at 540 nm. Format: cell-based. Here is the method:
To verify if the compounds mechanism of action is the chelation of iron ions, the MIC determination with Candida glabrata (ATCC 90030) strain was performed by the addition of excessive iron ions (100 μM FeCl3) in the test medium. The viability of cells exposed to drugs, with or without the metal ion Fe^3+, was evaluated by the OD measure at 540 nm.
The potency of compounds described in Example 3, 4, 11 12, E8 and NiK-29298 were evaluated on Candida glabrata in presence and in absence of 100 μM (100 micromoles) Fe^3+.
In all figures, the lines and dots represent the percent inhibition of the fungal growth (in ordinate) by adding different concentrations of antifungal agents (in abscissa). Blue lines and dots are the experiments performed without iron supplementation, while red lines and dots represent the results of the experiments performed in presence of 100 μM Fe^3+. […] Conversely, Fe^3+ has no effect on amphotericin, an antifungal agent known in the art to have a mechanism of action different from that of ciclopirox.

The subject of a further data set is invasive aspergillosis. The note with it: daily administered at 10 mg/kg; cited from earlier work.

≈ marks a conversion by molar mass, not a printed value.

The MIC is the least concentration at which growth counts as inhibited.

For the molecule `O=C(NCc1cccs1)c1ccc2cccnc2c1O` [Example 1, 8-Hydroxy-N-(thiophen-2-ylmethyl)quinoline-7-carboxamide], the MIC in [1] came to 1 µg/mL (≈ 3.52 µM); in data set [2], 1 µg/mL (≈ 3.52 µM); in data set [3], 0.25 µg/mL (≈ 0.879 µM); in data set [4], 0.25 µg/mL (≈ 0.879 µM); in [5], 0.5 µg/mL (≈ 1.76 µM); in [6], 0.5 µg/mL (≈ 1.76 µM).

With `O=C(NCC1CCCCC1)c1ccc2cccnc2c1O` [Example 2, 8-Hydroxy-N-(cyclohexylmethyl)quinoline-7-carboxamide], the MIC in data set [1] was 1.41 µg/mL (≈ 4.96 µM); in data set [2] it was 1.41 µg/mL (≈ 4.96 µM); in data set [3], 2 µg/mL (≈ 7.03 µM); in data set [4] it was 0.35 µg/mL (≈ 1.23 µM); in data set [5] it was 0.71 µg/mL (≈ 2.5 µM); in [6], 1 µg/mL (≈ 3.52 µM).

With `O=C(NCc1ccccc1)c1ccc2cccnc2c1O` [Example 3, 8-Hydroxy-N-benzyl-quinoline-7-carboxamide], the MIC came out at 1 µg/mL (≈ 3.59 µM) in data set [1]; 1 µg/mL (≈ 3.59 µM) in data set [2]; 0.35 µg/mL (≈ 1.26 µM) in [3]; 0.18 µg/mL (≈ 0.647 µM) in data set [4]; 0.18 µg/mL (≈ 0.647 µM) in data set [5]; 0.35 µg/mL (≈ 1.26 µM) in data set [6].

As to `O=C(NCc1ccc(Cl)cc1)c1ccc2cccnc2c1O` [Example 4, 8-Hydroxy-N-(4-chlorobenzyl)quinoline-7-carboxamide], the MIC in data set [1] was found to be 1 µg/mL (≈ 3.2 µM); in data set [2], 2 µg/mL (≈ 6.39 µM); in data set [3], 0.71 µg/mL (≈ 2.27 µM); in data set [4], 0.35 µg/mL (≈ 1.12 µM); in [5], 0.5 µg/mL (≈ 1.6 µM); in [6], 0.71 µg/mL (≈ 2.27 µM).

With `COc1ccc(NC(=O)c2ccc3cccnc3c2O)cc1` [Example 5, 8-Hydroxy-N-(4-methoxyphenyl)quinoline-7-carboxamide], the MIC turned out to be 0.71 µg/mL (≈ 2.41 µM) in [1]; 0.5 µg/mL (≈ 1.7 µM) in [2]; 0.71 µg/mL (≈ 2.41 µM) in data set [3]; 0.71 µg/mL (≈ 2.41 µM) in data set [4]; 0.5 µg/mL (≈ 1.7 µM) in data set [5]; 0.35 µg/mL (≈ 1.19 µM) in data set [6].

As to `O=C(NCc1ccc(C(F)(F)F)cc1)c1ccc2cccnc2c1O` [Example 6, 8-Hydroxy-N-(4-(trifluoromethyl)benzyl)quinoline-7-carboxamide], the MIC in [1] came to 1.41 µg/mL (≈ 4.07 µM); in data set [2], 1.41 µg/mL (≈ 4.07 µM); in data set [3], 1.41 µg/mL (≈ 4.07 µM); in data set [4], 0.5 µg/mL (≈ 1.44 µM); in data set [5], 1 µg/mL (≈ 2.89 µM); in [6], 1.41 µg/mL (≈ 4.07 µM).

`O=C(Nc1ccccc1)c1ccc2cccnc2c1O` [Example 7, 8-Hydroxy-N-phenyl-quinoline-7-carboxamide]: the MIC in data set [1] is 1 µg/mL (≈ 3.78 µM); in [2] it was 0.5 µg/mL (≈ 1.89 µM); in data set [3], 2 µg/mL (≈ 7.57 µM); in data set [4], 0.5 µg/mL (≈ 1.89 µM); in data set [5], 0.71 µg/mL (≈ 2.69 µM); in data set [6] it was 0.5 µg/mL (≈ 1.89 µM).

Take `O=C(NCc1ccccc1O)c1ccc2cccnc2c1O` [Example 8, 8-Hydroxy-N-(2-hydroxybenzyl)quinoline-7-carboxamide]: the MIC in [1] was found to be 2 µg/mL (≈ 6.8 µM); in [2], 2 µg/mL (≈ 6.8 µM); in data set [3] it was 1 µg/mL (≈ 3.4 µM); in data set [4] it was 0.25 µg/mL (≈ 0.849 µM); in data set [5] it was 0.5 µg/mL (≈ 1.7 µM); in data set [6], 0.71 µg/mL (≈ 2.41 µM).

Consider `O=C(NCc1ccco1)c1ccc2cccnc2c1O` [Example 9, 8-Hydroxy-N-(furan-2-ylmethyl)quinoline-7-carboxamide], for which the MIC in data set [1] stood at 0.71 µg/mL (≈ 2.65 µM); in data set [2], 0.71 µg/mL (≈ 2.65 µM); in [3], 0.71 µg/mL (≈ 2.65 µM); in data set [4] it was 1 µg/mL (≈ 3.73 µM); in [5] it was 1 µg/mL (≈ 3.73 µM); in data set [6] it was 0.71 µg/mL (≈ 2.65 µM).

Turning to `O=C(NCc1cccnc1)c1ccc2cccnc2c1O` [Example 10, 8-Hydroxy-N-(pyridin-3-ylmethyl)quinoline-7-carboxamide], the MIC was found to be 11.3 µg/mL (≈ 40.5 µM) in data set [1]; 4 µg/mL (≈ 14.3 µM) in data set [2]; 1 µg/mL (≈ 3.58 µM) in [3]; 1 µg/mL (≈ 3.58 µM) in data set [4]; 2 µg/mL (≈ 7.16 µM) in data set [5]; 2 µg/mL (≈ 7.16 µM) in [6].

Take `COc1ccc(CNC(=O)c2ccc3cccnc3c2O)cc1` [Example 11, 8-Hydroxy-N-(4-methoxybenzyl)quinoline-7-carboxamide]: the MIC in data set [2] worked out at 2 µg/mL (≈ 6.49 µM); in data set [3], 1 µg/mL (≈ 3.24 µM); in data set [4] it was 1 µg/mL (≈ 3.24 µM); in [5], 1 µg/mL (≈ 3.24 µM); in [6], 1 µg/mL (≈ 3.24 µM).

Consider `O=C(NCc1ccc(OCc2ccccc2)cc1)c1ccc2ncccc2c1` [Example E8], for which the “Spectrum of antifungal activity” value in data set [7] is given as “active only on yeasts”. For the same molecule, the “Effect of Fe3+ on the antifungal activity (percent inhibition of fungal growth)” value (from here on “Effect … (percent inhibition of fungal growth)”) in data set [8] is on record as “not inhibited”.

`O=C(NCc1ccccc1)c1ccc2ncccc2c1` [NiK-29298]: in data set [7], the “Spectrum of antifungal activity” value is “active only on yeasts”. In addition, the “Effect … (percent inhibition of fungal growth)” value in data set [8] is “not inhibited”.

Consider `C[C@@H]1[C@H](O)[C@@H](C)/C=C/C=C/C=C/C=C/C=C/C=C/C=C/[C@H](O[C@@H]2O[C@H](C)[C@@H](O)[C@H](N)[C@@H]2O)C[C@@H]2O[C@](O)(C[C@@H](O)C[C@@H](O)[C@H](O)CC[C@@H](O)C[C@@H](O)CC(=O)O[C@H]1C)C[C@H](O)[C@H]2C(=O)O` [amphotericin, Amphotericin B], for which the rates of nephrotoxicity with invasive aspergillosis is 31%. For the same molecule, the “Effect … (percent inhibition of fungal growth)” value in data set [8] is reported as “no effect”.

With `Cc1cc(C2CCCCC2)n(O)c(=O)c1` [ciclopirox], in data set [8], the “Effect … (percent inhibition of fungal growth)” value is listed as “completely inhibited”.
